Source: US8278072B1, “Method for synthesis of sialylated products using reversible sialylation” (Health Research, Inc., priority 2007, dated 2012)

Biological target: T1, ST3Gal-II (Rattus norvegicus, UniProt Q11205)
T1 construct: purchased Calbiochem
T1 sequence (Q11205 1-350): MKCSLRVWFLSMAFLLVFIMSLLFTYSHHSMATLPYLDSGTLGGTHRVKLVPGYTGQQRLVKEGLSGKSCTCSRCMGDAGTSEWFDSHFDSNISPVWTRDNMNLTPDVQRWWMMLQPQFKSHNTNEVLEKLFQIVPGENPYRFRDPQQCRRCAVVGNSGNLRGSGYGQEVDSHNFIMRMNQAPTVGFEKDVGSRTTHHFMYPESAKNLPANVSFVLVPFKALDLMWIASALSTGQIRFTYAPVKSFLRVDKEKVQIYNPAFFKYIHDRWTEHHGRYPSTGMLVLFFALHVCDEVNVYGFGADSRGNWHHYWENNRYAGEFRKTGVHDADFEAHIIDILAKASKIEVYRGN
Assay: Reverse sialylation: transfer of [9-3H]NeuAc from sialylated donor to nucleotide phosphates (WGA-agarose)
Type: biochemical
Conditions: donor [1]; for Incorporation of [9-3H]NeuAc expressed as percent of the CPM incorporated into 5′-CMP: nucleotide phosphate 1 mM as acceptor
Protocol: FIG. 1. Nucleotide phosphates as acceptors of radioactivity from [9-^3H]NeuAcα2,3Galβ,13 (GlcNAcβ1,6)GalNAcα-O—Al (Al=Allyl) [[9-^3H] [1]] in the presence of ST3Gal-II (scheme-I). Reaction mixtures (RM) with the following composition were incubated at 37° C. for 21 hours in 100 mM NaCa Codylate buffer, pH6.0: i) RM containing 150 μM (0.4 μCi) [[9-^3H] [1]] (donor) along with 0.8 mU ST3Gal-II but no 5″-CMP; and, ii) RM containing [[9-^3H] [1]] and 1.0 mM 5′-CMP, along with ST3Gal-II. Products formed were fractionated on a WGA-agarose column. […] The feasibility of the reverse reaction is well established in literature. Schematic symbols: ♦:sialic acid, ●:Gal, □:GalNAc, ▪:GlcNAc.
All enzymatic sialylation reactions were typically carried out in 100 mM NaCa Codylate buffer pH6.0 in the presence of enzyme, synthetic acceptor (at 7.5 mM or as indicated in each experiment) and 0.2 μCi CMP-[9-^3H]NeuAc (NEN-Dupont, 29 mCi/μmol). The concentration of total CMP-NeuAc was adjusted in individual reactions by supplementing with additional cold CMP-NeuAc. Reaction volume was 20 μl. Products formed were separated using four different chromatography procedures (below). In all cases, the radioactive content of isolated products was determined by using 3a70 scintillation cocktail (Research Products International, Mount Prospect, Ill.), and a Beckman LS6500 scintillation counter.
a) Biogel P2 chromatography: A Biogel P2 column (Fine Mesh; 1.0×116.0 cm) was used with 0.1 M pyridine acetate (pH5.4) as the eluent at room temperature. […] Fractions of 1.0 ml were collected. The bound material was then eluted with 0.5M GlcNAc or 0.2M Gal in the same buffer. […] Calculation of equilibrium constant, Keq: Equilibrium constant was calculated for selected reversible bimolecular reactions that are denoted by:
Cloned and purified rat sialyltransferase α2,3(O)ST (ST3Gal-II) is used in many experiments presented in this manuscript. […] In order to determine if the sialylation reaction is reversible (FIG. 1), [9-^3H]NeuAcα2,3Galβ,13(GlcNAcβ1,6)GalNAcα-O—Al (Al=Allyl) [9-^3H[1]] was prepared using ST3Gal-II in the presence of CMP-[9-^3H]NeuAc and the trisaccharide acceptor Galβ1,3(GlcNAcβ1,6)GalNAcα-O—Al, and the radiolabeled product was isolated using Biogel P2 chromatography. […] Two different reaction mixtures were then prepared with: i) [9-^3H[1]] and ST3Gal-II but without 5″-CMP; and ii) [9-^3H[1]] and 5″-CMP along with ST3Gal-II.

Row | Structure (SMILES) | Incorporation of [9-3H]NeuAc expressed as percent of the CPM incorporated into 5′-CMP | Incorporation of [9-3H]NeuAc (1 mM nucleotide phosphate)
1 | Nc1ccn([C@@H]2O[C@H](COP(=O)(O)OP(=O)(O)O)[C@@H](O)[C@H]2O)c(=O)n1 [5′-CDP] | 28.4% | –
2 | Nc1ccn([C@@H]2O[C@H](COP(=O)(O)O)[C@@H](O)[C@H]2O)c(=O)n1 [5′-CMP, Cytidine 5′-monophosphate] | 100.0% | (44197 CPM)
